These results are taken from patent US6531292B1, “Genes and proteins controlling cholesterol synthesis” (The Regents of the University of California, priority 1995, dated 2003).

In one data set the test system is proteasome. The following applies: Jensen et al. 1995; cited from earlier work.
The next data set deals with mammalian HMG-R. The following applies: mammalian cells, previous studies; cited from earlier work.
The test system of another data set is hrd mutant yeast strains. Nature of the data set: Canavanine sensitivity of hrd mutant strains on solid medium. The format is cell-based. The following applies: 1.5 μg/ml canavanine, 30° C., one week; versus isogenic parent strain. On the procedure: FIG. 7. Proteasomal phenotypes associate with the hrd2-1 mutant. A) Canavanine sensitivity. Liquid cultures of strains with the indicated mutations, but otherwise isogenic, were spotted onto supplemented minimal medium ([…] of ˜0.5 OD) with or without 1.5 μg/ml canavanine as indicated, and allowed to grow at 30° C. for a week. B) Global ubiquitination. Lysates of the same strains were immunoblotted with affinity-purified anti-ubiquitin antibody to survey the degree of ubiquitination of cellular proteins. The line indicates the position of an 80 kD marker. Equal amounts of protein were loaded in each lane and the transfer efficiency from each lane was identical, as judged by India ink staining. The average increase in the amount of ubiquitin conjugates in the hrd2-1 mutant was approximately threefold over the amount in other strains. C) Complementation of the hrd2-1 mutant by the human TRAP-2 coding region. Strain RHY402 (hrd2-1, Ura^−) was transformed with parent vector pRH98-1, with a centromere plasmid containing the HRD2 gene (pRH482) or with a plasmid that expressed the TRAP-2 coding region from the GAPDH promoter (pRH492). These transformants are noted “vector, HRD2, and TRAP-2”, respectively. Each strain was then streaked on solid medium with 0 (top) or 200 μg/ml (bottom) and allowed to grow at 37° C. […]

The subject of data set [1] is strain expressing 6myc-Hmg2p (RHY244). The experiment in a line: Lovastatin sensitivity (growth, plating efficiency) of strain expressing 6myc-Hmg2p. The format is cell-based, yeast. The following applies: liquid medium, FIG. 1d.
The subject of the next data set is 6myc-Hmg2p. Nature of the data set: 6myc-Hmg2p degradation by cycloheximide chase and stationary chase with immunoblotting. Conditions: small dose of lovastatin (50 μg/ml) added to cultures. Format: cell-based, yeast. An excerpt: (§1) FIG. 1. 6myc-Hmg2p: an unregulated variant of Hmg2p. A) schematic diagram of the unregulated 6myc-Hmg2p. […] The tagged protein was still capable of catalyzing the reduction of 3-hydroxy-3-methyl glutaryl CoA (HMG-CoA) to mevalonate (MEV), an essential intermediate of cholesterol biosynthesis. B) The degradation of 6myc-Hmg2p was not regulated by the mevalonate pathway. Cells expressing 6myc-Hmg2p (RHY244) or Hmg2p (RHY183) were examined for degradation of each protein by addition of cycloheximide at time zero and subsequent immunoblotting, as described by Hampton and Rine (J Cell Biol 125: 299-312, 1994). In the indicated samples, 50 μg/ml of lovastatin was added along with the cycloheximide at t=0. The 6myc-Hmg2planes (left panel) were immunoblotted using the 9E10 anti-myc antibody, and the Hmg2p lanes (right panel) were immunoblotted with affinity purified anti-Hmg1p protein. Each lane contained lysate from ˜0.2 O.D.600 units of cells. C) Test of 6myc-Hmg2p degradation by “stationary chase.” Log phase (OD600˜0.5) cultures of the strains used in Panel B were allowed to grow for an additional 15 hours at 30° C., and then subjected to lysis and immunoblotting to evaluate degradation of the expressed reductase (Hampton et al., Proc. Natl. Acad. Sci. USA. 93: 828-833, 1996). […]
Background: In western blotting, separated proteins are transferred to a membrane and probed.

The next data set deals with T1, Hmg2p (Saccharomyces cerevisiae, UniProt P12684).
T1 construct: Note the lowered mobility of the 6myc-Hmg2p protein as compare to the native Hmg2p; expressed in transfected cells; host or cells: S. cerevisiae strain RHY183 (hmg1 and hmg2 disrupted; single integrated HMG2 coding region under the GAPDH promoter)
T1 sequence (P12684 1-1045): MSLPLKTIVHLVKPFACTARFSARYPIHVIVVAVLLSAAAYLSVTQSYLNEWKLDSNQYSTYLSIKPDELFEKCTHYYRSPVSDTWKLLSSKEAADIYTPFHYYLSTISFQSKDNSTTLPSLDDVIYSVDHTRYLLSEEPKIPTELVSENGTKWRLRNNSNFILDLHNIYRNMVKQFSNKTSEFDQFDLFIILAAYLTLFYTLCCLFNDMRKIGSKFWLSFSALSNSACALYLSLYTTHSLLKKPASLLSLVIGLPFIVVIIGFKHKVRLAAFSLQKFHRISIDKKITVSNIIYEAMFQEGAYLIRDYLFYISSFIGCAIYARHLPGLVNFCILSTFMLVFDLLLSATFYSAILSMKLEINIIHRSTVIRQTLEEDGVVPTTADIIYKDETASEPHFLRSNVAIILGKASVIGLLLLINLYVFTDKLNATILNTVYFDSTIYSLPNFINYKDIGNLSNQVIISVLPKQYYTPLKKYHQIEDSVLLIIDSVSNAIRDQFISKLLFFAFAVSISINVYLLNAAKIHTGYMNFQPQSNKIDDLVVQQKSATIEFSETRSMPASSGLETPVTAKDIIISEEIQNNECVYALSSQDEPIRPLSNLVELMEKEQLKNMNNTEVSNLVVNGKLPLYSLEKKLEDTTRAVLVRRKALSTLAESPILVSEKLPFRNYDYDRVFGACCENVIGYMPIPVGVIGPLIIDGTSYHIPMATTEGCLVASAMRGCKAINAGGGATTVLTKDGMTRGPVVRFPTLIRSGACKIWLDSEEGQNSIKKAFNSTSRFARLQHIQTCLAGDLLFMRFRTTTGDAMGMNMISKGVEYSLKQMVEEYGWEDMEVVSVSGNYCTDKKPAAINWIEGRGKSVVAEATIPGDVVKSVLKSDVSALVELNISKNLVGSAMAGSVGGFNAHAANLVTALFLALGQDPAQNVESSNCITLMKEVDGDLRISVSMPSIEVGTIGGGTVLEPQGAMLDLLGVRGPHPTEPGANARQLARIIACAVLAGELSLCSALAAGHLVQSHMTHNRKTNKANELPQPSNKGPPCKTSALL
Nature of the data set: Hmg2p degradation by cycloheximide chase and stationary chase with immunoblotting. Format: cell-based, yeast. Conditions: small dose of lovastatin (50 μg/ml) added to cultures.
Excerpt: as §1

In data set [2] the test system is strain expressing Hmg2p (RHY183). Nature of the data set: Lovastatin sensitivity (growth, plating efficiency) of strain expressing Hmg2p. The format is cell-based, yeast.

Where “and” joins values, the source holds several entries; their conditions need not be identical. Equal values may be shown once. Square brackets hold non-standard residues; d marks the D form. Peptide text beside a SMILES is read from it. Nle = CCCC[C@H](N)C(=O)O

Take `CCCC[C@@H](C=O)NC(=O)[C@H](CC(C)C)NC(=O)[C@H](CC(C)C)NC(C)=O` [ALLN] (Ac-Leu-Leu-[Nle]-aldehyde): the “inhibition of the proteasome” value in the data set with proteasome is recorded as “potent inhibitor”. Also, the “degradation of mammalian HMG-R” value with mammalian HMG-R was “inhibited”.

For the molecule `N=C(N)NOCC[C@H](N)C(=O)O` [canavanine], in the data set with hrd mutant yeast strains, the “sensitivity of hrd1 or hrd3 alleles to canavanine” value is “no more sensitive” and the “sensitivity of hrd2 mutants to canavanine” value was “heightened sensitivity”.

As to `CC[C@H](C)C(=O)O[C@H]1C[C@@H](C)C=C2C=C[C@H](C)[C@H](CC[C@@H]3C[C@@H](O)CC(=O)O3)[C@H]21` [lovastatin], the “lovastatin sensitivity relative to isogenic strain expressing HMG2” value in data set [1] is reported as “more sensitive”. The “effect on degradation of 6myc-Hmg2p” value with 6myc-Hmg2p is on record as “unaffected”. The “effect on degradation of wild-type Hmg2p” value on Hmg2p is listed as “dramatically stabilized”. Moreover, in data set [2] (hmg1::LYS2 hmg2::HIS3 strain with single integrated HMG2 driven by GAPDH promoter, dose-dependent), the growth of strain entry is listed as “blocked”. Moreover, the “plating efficiency of surviving colonies on lovastatin medium” value in data set [2] (non-mutagenized cells expressing wild-type Hmg2p, solid lovastatin-containing medium) was 0.1-1% and ~1%.
